Results published in US20250041624A1, “METHOD FOR ENHANCING ACTIVITY OF PHOTOSENSITIZER BY MAGNETIC FIELD” (PEKING UNIVERSITY, priority 2021, published 2025).

Tests used:
[1] = Reaction rate of fluorescent probe SOSG with 1O2 generated by photosensitizer under light and magnetic field; format: physicochemical; conditions: for first derivative of the I525 nm−t curve (normalized): RB and SOSG 10 μmol/L in water, 561 nm LED 5 mW·cm−2, time 0
Description: (1) The photosensitizer Rose Bengal (RB) (the purity >98%, available from Saen Chemical Technologies (Shanghai) Ltd. Co., branded as Energy Chemical) and singlet oxygen fluorescent probe (SOSG) are dissolved in water (SOSG available from ThermoFisher Scientific (China) Co., Ltd.). In the resulting solution, the photosensitizer and SOSG are both at a concentration of 10 μmol/L. In a magnetic field with certain strength, the solutions are exposed to a 561 nm LED lamp (light emitting diode) at a power of 5 mW·cm^−2 and tested for fluorescence spectra at 0, 15, 30, 45, 60, 90, 120 and 180 seconds of light exposure, respectively, resulting in emission intensity ([…]) versus time (t) curves. The above fluorescence spectroscopy test is performed at a magnetic field strength of 0, 10, 35, 85, 180, 300 mT, respectively (external magnetic field provided by a neodymium iron boron permanent magnet).
(2) The photosensitizer chlorin e6 (Ce6, Chlorin e6) (available from Saen Chemical Technologies (Shanghai) Ltd. Co., branded as Energy Chemical) and singlet oxygen fluorescent probe (SOSG) are dissolved in water, both with a concentration of 10 μmol/L in the resulting solutions. In a magnetic field with certain strength, the solutions are exposed to a 640 nm LED lamp (light emitting diode) at a power of 5 mW·cm^−2 and tested for fluorescence spectra at 0, 15, 30, 45, 60, 90, 120 and 180 seconds of light exposure, respectively, resulting in emission intensity ([…]) versus time (t) curves. The above fluorescence spectra are tested at a magnetic field strength of 0, 10, 30, 70, 150, 250 mT, respectively.
The external magnetic field is supplied by Neodymium Iron Boron Permanent Magnet. Fluorescence spectra are tested using Edinburg FLS980 Steady State Transient Fluorescence Spectrometer with a detector of PMT R928 and a light source of 450 W ozone-free xenon lamp with excitation wavelength of λex=488 nm.
Under irradiation conditions, photosensitizer is excited to produce singlet oxygen ^1O2, and fluorescent probe SOSG reacts with ^1O2 to give endoperoxide with green fluorescence emission characteristic, with emission wavelength of 525 nm under excitation wavelength conditions of 488 nm. The reaction has a reaction rate of r.
In the present invention, through application of light and a magnetic field, the magnetic field effects (MFEs) is quantified by mfeR, the change rate of the reaction rate r, mfeR=(rB−r0)/r0×100%, where r0 is the reaction rate at a magnetic field strength of 0 mT and rB is the reaction rate at a magnetic field strength of B mT. Where the reaction rate (r) is proportional to the slope of the tangent of a curve (first derivative of the curve) of the emission intensity (I525 nm) versus time (t). Under magnetic field strengths of 0, 10, 35, 85, 180, 300 mT and from the time of starting to illuminate and place in magnetic field (the time recorded as 0), the first derivative of the I525 nm−t curve is 1, 1.05, 1.09, 0.99, 1.12, 1.14 (normalized).

[2] = system: HeLa cells; assay: 14-day culture and crystal violet staining of HeLa cells after light and magnetic field; format: cell-based
Description: (2) HeLa cells (1×10^3/well) are seeded in 6-well plates, 30 μL aqueous solution of RB (final concentration of 30 μM) or equal volume 0.01M PBS buffer is added as control, and, after 24 h incubation in DMEM (comprising FBS) medium, cells are washed 3 times with PBS buffer.
The cells are treated in the dark or with 10 min light (561 nm […], 5 mW·cm^−2) under magnetic field conditions at 0 mT, 250 mT, 800 mT respectively. Culture is continued in the dark, and media is changed every other day. After 14 days, it is rinsed with PBS buffer and methanol, and cells are stained with added 0.1 wt % aqueous solution of crystal violet, and the number of cells in the plate is shown in FIG. 9; and the relative cell activity of HeLa cells at a concentration of 30 μmol/L RB under the magnetic field conditions of 0 mT, 250 mT, 800 mT is shown in FIG. 10.

O=C1OC2(c3cc(I)c(O)c(I)c3Oc3c2cc(I)c(O)c3I)c2c(Cl)c(Cl)c(Cl)c(Cl)c21 [RB, Rose Bengal]
first derivative of the I525 nm−t curve (normalized) ([1]; MF 0 mT): 1
first derivative of the I525 nm−t curve (normalized) ([1]; MF 10 mT): 1.05
first derivative of the I525 nm−t curve (normalized) ([1]; MF 35 mT): 1.09
first derivative of the I525 nm−t curve (normalized) ([1]; MF 85 mT): 0.99
first derivative of the I525 nm−t curve (normalized) ([1]; MF 180 mT): 1.12
first derivative of the I525 nm−t curve (normalized) ([1]; MF 300 mT): 1.14
mfer (change rate of reaction rate r of SOSG with 1O2) ([1]; peak, MF 250 mT vs 0 mT, FIG. 1): 25%
cytotoxicity against HeLa cells in the absence of light ([2]; RB 30 μM, dark, with or without magnetic field, FIG. 9): no cytotoxicity
cell numbers relative to PBS-only treatment ([2]; RB 30 μM, light alone (0 mT), 14 days, FIG. 9): significantly lower
cell numbers ([2]; RB 30 μM, light, 250 mT, 14 days, FIG. 9): the least
cell numbers ([2]; RB 30 μM, light, 800 mT, 14 days, FIG. 9): more under 800 mT conditions compared to 0 mT and 250 mT conditions
reduction of cell number relative to 0 mT ([2]; RB 30 μmol/L, light, 250 mT, FIG. 10): 17%
increase of cell number relative to 0 mT ([2]; RB 30 μmol/L, light, 800 mT, FIG. 10): 32%
